The values below are quoted from earlier work in patent US11975013B2, “Stable formulations comprising thiotepa” (SHORLA PHARMA LTD., priority 2020, dated 2024).

Molecules are shown by their SMILES.

For this series the following is noted: reconstituted in water, stored longer than five days; EP 0 419 890.

In the case of `S=P(N1CC1)(N1CC1)N1CC1` [thiotepa, N,N′,N″-triethylenethiophosphoramide], the “potency on storage (in words)” value is recorded as “substantial loss of potency”.
